Experimental data published in paper PMC6271338, “Synthesis and Cytotoxic Evaluation of Alkoxylated Chalcones” (Molecules, 2014).

Key:
SW1990 cells = assay: In vitro anti-proliferative SRB assay, SW1990; assay type: cell-based, human; settings: for IC50: Homo sapiens, SW1990, increasing concentrations up to 30 μM, mean ± SD of at least three independent experiments; for SI (CC50 HMLE/IC50 SW1990) / SI (CC50 L02/IC50 SW1990): selectivity index; for SI (CC50 HMLE/IC50 SW1990): HMLE vs SW1990; for SI (CC50 L02/IC50 SW1990): L02 vs SW1990
Experimental: (§1) HepG2 and MCF7 cells were grown in the Eagle’s minimum essential medium with Earle’s balanced salts (MEM-EBSS) medium, HeLa, A549 and L02 cells were grown in Dulbecco’s Modified Eagle Media (DMEM), SW1990 cells were grown in RPMI-1640 medium, and HMLE cell were grown in DMEM/F-12 medium. […]
(§2) Cells were seeded into 96-well plates (4000 cells/well) and incubated at 37 °C in a humidified 5% CO2 atmosphere. After 24 h, the cells were treated with different concentrations of the compounds for 48 h in triplicate to generate dose-response curves. Cell viability was evaluated using the sulforhodamine B (SRB) assay as previous described.

A549 cells = assay: In vitro anti-proliferative SRB assay, A549; assay type: cell-based, human; settings: for IC50: Homo sapiens, A549, increasing concentrations up to 30 μM, mean ± SD of at least three independent experiments; for SI (CC50 HMLE/IC50 A549) / SI (CC50 L02/IC50 A549): selectivity index; for SI (CC50 HMLE/IC50 A549): HMLE vs A549; for SI (CC50 L02/IC50 A549): L02 vs A549
Experimental: as §1, §2

MCF-7 cells = assay: In vitro anti-proliferative SRB assay, MCF-7; assay type: cell-based, human; settings: for IC50: Homo sapiens, MCF7, increasing concentrations up to 30 μM, mean ± SD of at least three independent experiments; for SI (CC50 HMLE/IC50 MCF7) / SI (CC50 L02/IC50 MCF7): selectivity index; for SI (CC50 HMLE/IC50 MCF7): HMLE vs MCF7; for SI (CC50 L02/IC50 MCF7): L02 vs MCF7
Experimental: as §1, §2

[1] = Cytotoxicity (SRB) against non-tumoral L02 cells; assay type: cell-based, human; settings: human, L02 cells (non-tumoral human liver cell line); increasing concentrations up to 100 μM; mean ± SD of at least three independent experiments; read-out: Normal Human Cell Lines, CC50, L02
Experimental: (§3) All compounds were also evaluated for their cytotoxic activity against two non-tumoral human cell lines named human mammary epithelial cell (HMLE) and L02 (a human liver cell line) in Table 2 and SI values between the CC50 in non-tumoral cell lines and IC50 in tumoral cells calculated.
as §1
as §2, with “described. […] Etoposide was used as the positive control.” for “described.”

[2] = Cytotoxicity (SRB) against non-tumoral HMLE cells; assay type: cell-based, human; settings: human, HMLE cells (non-tumoral human mammary epithelial cells); increasing concentrations up to 100 μM; mean ± SD of at least three independent experiments; read-out: Normal Human Cell Lines, CC50, HMLE
Experimental: as §3, §1
as §2, with “described. […] Etoposide was used as the positive control.” for “described.”

HeLa cells = assay: In vitro anti-proliferative SRB assay, HeLa; assay type: cell-based, human; settings: for IC50: Homo sapiens, HeLa, increasing concentrations up to 30 μM, mean ± SD of at least three independent experiments; for SI (CC50 HMLE/IC50 Hela) / SI (CC50 L02/IC50 Hela): selectivity index; for SI (CC50 HMLE/IC50 Hela): HMLE vs HeLa; for SI (CC50 L02/IC50 Hela): L02 vs HeLa
Experimental: as §1, §2

HepG2 cells = assay: In vitro anti-proliferative SRB assay, HepG2; assay type: cell-based, human; settings: for IC50: Homo sapiens, HepG2, increasing concentrations up to 30 μM, mean ± SD of at least three independent experiments; for SI (CC50 HMLE/IC50 HepG2) / SI (CC50 L02/IC50 HepG2): selectivity index; for SI (CC50 HMLE/IC50 HepG2): HMLE vs HepG2; for SI (CC50 L02/IC50 HepG2): L02 vs HepG2
Experimental: as §1, §2

Row | IC50 (SW1990 cells) | IC50 (A549 cells) | melting point | IC50 (MCF-7 cells) | IC50 (HeLa cells) | IC50 (HepG2 cells) | SMILES | SI (CC50 HMLE/IC50 SW1990) (SW1990 cells) | SI (CC50 L02/IC50 SW1990) (SW1990 cells) | SI (CC50 HMLE/IC50 A549) (A549 cells) | SI (CC50 L02/IC50 A549) (A549 cells) | SI (CC50 HMLE/IC50 MCF7) (MCF-7 cells) | SI (CC50 L02/IC50 MCF7) (MCF-7 cells) | CC50 at 48 h [1] | CC50 at 48 h [2] | SI (CC50 HMLE/IC50 Hela) (HeLa cells) | SI (CC50 L02/IC50 Hela) (HeLa cells) | SI (CC50 HMLE/IC50 HepG2) (HepG2 cells) | SI (CC50 L02/IC50 HepG2) (HepG2 cells)
1 | 24.4 ± 0.6 µM | 22.3 ± 0.99 µM | 118.8 to 120.2 °C | 22.6 ± 2.1 µM | 21.6 ± 0.43 µM | 17.3 ± 0.23 µM | COc1cccc(OC)c1/C=C/C(=O)c1ccc2c(c1)CCO2 [b21, (E)-1-(2,3-Dihydrobenzofuran-5-yl)-3-(2,6-dimethoxyphenyl)prop-2-en-1-one] | 0.6 | 2.4 | 0.7 | 2.6 | 0.6 | 2.5 | 57.5 ± 13.6 µM | 14.6 ± 0.81 µM | 0.7 | 2.7 | 0.8 | 3.3
2 | 16.1 ± 0.32 µM | 8.64 ± 0.31 µM | 114.2 to 115.9 °C | 10.7 ± 0.38 µM | 13.4 ± 0.74 µM | 7.77 ± 0.08 µM | COc1cccc(OC)c1/C=C/C(=O)c1ccccc1O [b24, (E)-1-(2-Hydroxyphenyl)-3-(2,6-dimethoxyphenyl)prop-2-en-1-one] | 0.6 | 1.5 | 1.0 | 2.8 | 0.8 | 2.3 | 24.2 ± 2.71 µM | 8.96 ± 0.44 µM | 0.7 | 1.8 | 1.2 | 3.1
3 | 21 ± 0.43 µM | 12.7 ± 0.28 µM | 138.1 to 139.7 °C | 8.92 ± 0.25 µM | 9.56 ± 0.33 µM | 7.27 ± 0.13 µM | COc1cccc(OC)c1/C=C/C(=O)c1cccc(O)c1 [b25, (E)-1-(3-Hydroxyphenyl)-3-(2,6-dimethoxyphenyl)prop-2-en-1-one] | 0.3 | 0.9 | 0.5 | 1.5 | 0.7 | 2.2 | 19.6 ± 1.29 µM | 6.31 ± 0.13 µM | 0.7 | 2.1 | 0.9 | 2.7
4 | 20.8 ± 0.54 µM | 23.8 ± 1.56 µM | 189.6 to 191.4 °C | 20.2 ± 0.3 µM | 12.7 ± 0.81 µM | 14.4 ± 0.81 µM | COc1cccc(OC)c1/C=C/C(=O)c1ccc(O)cc1 [b26, (E)-1-(4-Hydroxyphenyl)-3-(2,6-dimethoxyphenyl)prop-2-en-1-one] | 0.6 | 1.4 | 0.5 | 1.2 | 0.6 | 1.4 | 28.2 ± 1.69 µM | 12.6 ± 2.82 µM | 1.0 | 2.2 | 0.9 | 2.0
5 | 28.3 ± 0.26 µM | 17.4 ± 0.97 µM | 143.5 to 144.7 °C | 28.4 ± 1.25 µM | 17 ± 0.65 µM | 19.5 ± 0.79 µM | COc1ccc(C(=O)/C=C/c2c(OC)cccc2OC)c(O)c1 [b28, (E)-1-(2-Hydroxy-4-methoxyphenyl)-3-(2,6-dimethoxyphenyl)prop-2-en-1-one] | 0.6 | >3.5 | 0.9 | >5.8 | 0.6 | >3.5 | > 100 µM | 16.2 ± 2.48 µM | 1.0 | >5.9 | 0.8 | >5.1
6 | 28.38 ± 0.27 µM | 27.2 ± 1.39 µM | 105.4 to 107.3 °C | 25.5 ± 0.78 µM | 20.7 ± 0.78 µM | 21.6 ± 0.97 µM | COc1cccc(OC)c1/C=C/C(=O)c1cccc(F)c1 [b32, (E)-1-(3-Fluorophenyl)-3-(2,6-dimethoxyphenyl)prop-2-en-1-one] | 0.4 | 2.5 | 0.4 | 2.7 | 0.5 | 2.8 | 72 ± 12.1 µM | 11.9 ± 1.28 µM | 0.6 | 3.5 | 0.6 | 3.3
7 | > 30 µM | > 30 µM | 108.2 to 109.6 °C | 32.2 ± 1.34 µM | 17.4 ± 0.39 µM | 24.6 ± 0.36 µM | COc1cccc(OC)c1/C=C/C(=O)c1ccc(F)cc1 [b33, (E)-1-(4-Fluorophenyl)-3-(2,6-dimethoxyphenyl)prop-2-en-1-one] | <0.4 | <2.1 | <0.4 | <2.1 | 0.4 | 2.0 | 63.9 ± 13.8 µM | 12.7 ± 2.35 µM | 0.7 | 3.7 | 0.5 | 2.6
8 | > 30 µM | > 30 µM | 107.9 to 109.7 °C | 29.8 ± 0.8 µM | 18.4 ± 0.06 µM | 27.1 ± 0.88 µM | COc1cccc(OC)c1/C=C/C(=O)c1ccc(Cl)cc1 [b35, (E)-1-(4-Chlorophenyl)-3-(2,6-dimethoxyphenyl)prop-2-en-1-one] | <0.6 | <2.8 | <0.6 | <2.8 | 0.6 | 2.9 | 85.4 ± 6.86 µM | 17.7 ± 1.35 µM | 1.0 | 4.6 | 0.7 | 3.2
9 | 17.1 ± 0.57 µM | 25 ± 3.17 µM | 135.7 to 138.2 °C | 23.3 ± 0.79 µM | 13.4 ± 0.44 µM | 11.3 ± 1.45 µM | COc1cccc(OC)c1/C=C/C(=O)c1cccc(Br)c1 [b36, (E)-1-(3-Bromophenyl)-3-(2,6-dimethoxyphenyl)prop-2-en-1-one] | 0.8 | 3.6 | 0.5 | 2.4 | 0.6 | 2.6 | 61.2 ± 12.1 µM | 13.1 ± 1.21 µM | 1.0 | 4.6 | 1.2 | 5.4
10 | 15.4 ± 0.83 µM | > 30 µM | 111.1 to 112.7 °C | 30.4 ± 0.71 µM | 15.7 ± 1.09 µM | 11.7 ± 0.18 µM | COc1cccc(OC)c1/C=C/C(=O)c1ccc(Cl)cc1Cl [b37, (E)-1-(2,4-Dichlorophenyl)-3-(2,6-dimethoxyphenyl)prop-2-en-1-one] | 1.3 | >6.5 | <0.7 | – | 0.7 | >3.3 | > 100 µM | 19.8 ± 1.44 µM | 1.3 | >6.4 | 1.7 | >8.5
11 | 26.16 ± 0.08 µM | 27.6 ± 0.58 µM | 142.1 to 143.4 °C | 29.6 ± 2.13 µM | 17.6 ± 2.01 µM | 18.6 ± 1.24 µM | COc1cccc(OC)c1/C=C/C(=O)c1ccc(Cl)c(Cl)c1 [b38, (E)-1-(3,4-Dichlorophenyl)-3-(2,6-dimethoxyphenyl)prop-2-en-1-one] | 1.1 | >3.8 | 1.0 | >3.6 | 1.0 | >3.4 | > 100 µM | 28.3 ± 3.74 µM | 1.6 | >5.7 | 1.5 | >5.4
